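Five concentrations, 48 hours, 96-well plates. GI50 marks 50% less growth.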 Calls of active or inactive are those of the source. No stated cut-off is given here; in the data, active = GI50 up to about 1.1 µM and inactive = higher.
Experiments:
Assay in all cases: inhibition of tumour cell growth, NCI panel, 48 h
CAKI-1 = test system: CAKI-1
RXF 393 = test system: RXF 393
A549 = test system: A549
MDA-N = test system: MDA-N
RPMI-8226 = test system: RPMI-8226
OVCAR-5 = test system: OVCAR-5
SN12C = test system: SN12C
SF-268 = test system: SF-268
SK-MEL-28 = test system: SK-MEL-28
EKVX = test system: EKVX
NCI-H522 = test system: NCI-H522
MDA-MB-435 = test system: MDA-MB-435
PC-3 = test system: PC-3
SF-539 = test system: SF-539
LOX IMVI = test system: LOX IMVI
U-251 = test system: U-251
SNB-75 = test system: SNB-75
UACC-257 = test system: UACC-257
T47D = test system: T47D
SR = test system: SR

Measured: GI50

O=CN1CCN(C(=O)c2ccc(Cl)cc2)C1=S
inactive: CAKI-1 14.1 µM | RXF 393 16.8 µM | A549 14.9 µM | MDA-N 16.6 µM | RPMI-8226 3.35 µM | OVCAR-5 17.4 µM | SN12C 14.7 µM | SF-268 19.2 µM | SK-MEL-28 19.1 µM | EKVX 15.6 µM | NCI-H522 14.8 µM | MDA-MB-435 14.8 µM | PC-3 15.7 µM | SF-539 26.6 µM | LOX IMVI 11.7 µM | U-251 14.4 µM | SNB-75 20 µM | UACC-257 17.5 µM | T47D 12.8 µM

O/N=C(\C=N\O)c1ccc2c(c1)Sc1ccccc1O2
inactive: CAKI-1 23.8 µM | RXF 393 15.8 µM | A549 30.8 µM | RPMI-8226 12.2 µM | OVCAR-5 31.7 µM | SR 19.7 µM | SN12C 17.5 µM | SF-268 16.8 µM | SK-MEL-28 30.5 µM | EKVX 16.5 µM | NCI-H522 3.53 µM | MDA-MB-435 12.1 µM | PC-3 14.8 µM | SF-539 26.4 µM | LOX IMVI 30.5 µM | U-251 26.8 µM | SNB-75 16.1 µM | UACC-257 19.5 µM | T47D 24.5 µM

CCC(=O)C(c1ccccc1)c1ccccn1 (centres undefined)
inactive: CAKI-1 > 100 µM | RXF 393 > 100 µM | A549 > 100 µM | MDA-N > 100 µM | RPMI-8226 > 100 µM | OVCAR-5 > 100 µM | SN12C > 100 µM | SF-268 > 100 µM | SK-MEL-28 > 100 µM | EKVX > 100 µM | NCI-H522 > 100 µM | MDA-MB-435 > 100 µM | PC-3 > 100 µM | LOX IMVI > 100 µM | U-251 > 100 µM | SNB-75 > 100 µM | UACC-257 > 100 µM | T47D > 100 µM

CC1=CCC(C(C)(C)NC(=O)c2ccccc2)C/C1=N/O (centres undefined)
inactive: A549 > 100 µM | MDA-N > 100 µM | OVCAR-5 > 100 µM | SN12C > 100 µM | SF-268 > 100 µM | SK-MEL-28 > 100 µM | EKVX > 100 µM | NCI-H522 > 100 µM | MDA-MB-435 > 100 µM | PC-3 > 100 µM | SF-539 > 100 µM | LOX IMVI > 100 µM | U-251 > 100 µM | SNB-75 > 100 µM | UACC-257 > 100 µM | T47D > 100 µM

O=c1oc(-c2ccc(O)cc2)cc2cc(O)ccc12
inactive: CAKI-1 29.1 µM | RXF 393 23.5 µM | A549 41.5 µM | RPMI-8226 48.8 µM | OVCAR-5 43.2 µM | SN12C 17.2 µM | SF-268 26.5 µM | EKVX 31.9 µM | NCI-H522 25.8 µM | MDA-MB-435 27.4 µM | PC-3 25.3 µM | SF-539 32.2 µM | SNB-75 31.6 µM | UACC-257 52 µM | T47D 19.9 µM

CCOc1ccc(N/C(=C(/C(Cl)=C(/Cl)NCCO)[N+](=O)[O-])n2nnc3ccccc32)cc1
inactive: CAKI-1 14.4 µM | RXF 393 16.2 µM | A549 44 µM | MDA-N 28.9 µM | RPMI-8226 30.7 µM | OVCAR-5 35.6 µM | SN12C 19.8 µM | SF-268 20.1 µM | SK-MEL-28 18.7 µM | EKVX 25.2 µM | MDA-MB-435 16.4 µM | PC-3 25.7 µM | SF-539 34.5 µM | U-251 21.8 µM | SNB-75 60.1 µM | UACC-257 41.3 µM | T47D 18.2 µM

CCOC(=O)C(CC(C)C)NC(=O)CSc1nnc(COc2ccc(Cl)cc2)n1-c1ccccc1 (centres undefined)
inactive: RXF 393 16.6 µM | A549 21.2 µM | RPMI-8226 16.4 µM | OVCAR-5 19.9 µM | SR 2.3 µM | SN12C 15.6 µM | SF-268 18.2 µM | SK-MEL-28 16.7 µM | MDA-MB-435 16.9 µM | PC-3 17.1 µM | SF-539 21.8 µM | LOX IMVI 14.9 µM | U-251 19.3 µM | SNB-75 16.5 µM | UACC-257 11.2 µM | T47D 14.4 µM

CC1(C)Cc2c(c3ccccc3c3nc4c(nc23)c2c(c3ccccc34)OC(C)(C)C2)O1
inactive: CAKI-1 > 100 µM | RXF 393 > 100 µM | A549 > 100 µM | MDA-N > 100 µM | RPMI-8226 > 100 µM | OVCAR-5 > 100 µM | SN12C > 100 µM | SF-268 > 100 µM | SK-MEL-28 > 100 µM | EKVX > 100 µM | NCI-H522 > 100 µM | MDA-MB-435 > 100 µM | PC-3 > 100 µM | SF-539 > 100 µM | LOX IMVI > 100 µM | U-251 > 100 µM | UACC-257 > 100 µM | T47D > 100 µM

O=C(O)C1CCCN(CCc2c[nH]c3ccccc23)C1 (centres undefined)
inactive: CAKI-1 > 100 µM | RXF 393 > 100 µM | A549 > 100 µM | MDA-N > 100 µM | RPMI-8226 > 100 µM | OVCAR-5 > 100 µM | SN12C > 100 µM | SF-268 > 100 µM | SK-MEL-28 > 100 µM | EKVX > 100 µM | NCI-H522 > 100 µM | MDA-MB-435 > 100 µM | PC-3 > 100 µM | SF-539 > 100 µM | LOX IMVI > 100 µM | U-251 > 100 µM | SNB-75 > 100 µM | UACC-257 > 100 µM | T47D > 100 µM

COc1ccc2cc(C(C)C(O)c3cc(F)c(F)c(F)c3F)ccc2c1 (centres undefined)
inactive: A549 > 100 µM | MDA-N > 100 µM | RPMI-8226 > 100 µM | OVCAR-5 > 100 µM | SN12C > 100 µM | SF-268 76.4 µM | SK-MEL-28 > 100 µM | EKVX 45.5 µM | MDA-MB-435 > 100 µM | PC-3 > 100 µM | LOX IMVI > 100 µM | U-251 > 100 µM | SNB-75 16.3 µM | UACC-257 > 100 µM | T47D 53.5 µM

Nc1nc(-c2ccccc2)nc2c1[n+]([O-])c1ccccc1[n+]2[O-]
inactive: CAKI-1 > 100 µM | RXF 393 > 100 µM | A549 > 100 µM | RPMI-8226 > 100 µM | OVCAR-5 > 100 µM | SN12C > 100 µM | SF-268 > 100 µM | SK-MEL-28 > 100 µM | EKVX > 100 µM | NCI-H522 > 100 µM | MDA-MB-435 > 100 µM | PC-3 > 100 µM | SF-539 > 100 µM | LOX IMVI > 100 µM | U-251 > 100 µM | UACC-257 > 100 µM | T47D > 100 µM

— ChEMBL document CHEMBL1201862, “PubChem BioAssay data set” (2004)
